Measurements: article PMC7055300, “Theileria parasites subvert E2F signaling to stimulate leukocyte proliferation” (Scientific Reports, 2020)
Entries after “also recorded” stand apart in the source; their conditions may differ.

Assays:
BL20/TBL20 cells = assay type: cell-based, bovine; conditions: HLM006474 10 μM; data not shown
Method: Since the LXCXE peptide can induce E2F activity, we investigated whether it could, on its own, increase bovine leukocyte proliferation. To extend our observations to T. annulata-infected leukocytes, we incubated T. annulata-infected B cells with WT or mutated LXNXE peptides and counted cell numbers at 24 h and 48 h.
The amino acid sequence of RB-1 based on the parasite sequence ([…]) was synthesized. Cysteine in wild type RB1 was replaced by an Asparagine (N; in bold […]). The penetrating peptide to facilitate cell entry is underlined. 3 different concentrations of peptides were used for 2 h to determine the minimum effective concentration (1 μM) with minimum toxic effect, which was used to perform each experiment as indicated.

[1] = test system: T. annulata-infected TBL20 cells; test: Cell proliferation, T. annulata-infected B cells (TBL20), hemacytometer count; assay type: cell-based, bovine; conditions: T. annulata-infected TBL20, HLM006474 10 μM in DMSO, average of 3 independent experiments
Method: (§1) (a) TpMD409B.2 cells were transfected with E2F-luc (WT = wild-type E2F binding construct), or mutated E2F-luc constructs (labeled ‘mutated’) together with a CMV-lacZ plasmid to normalize for transfection efficiency. Luciferase and β-galactosidase activities were measured 24 hrs after transfection. E2F-luc relative luciferase activity normalized to mE2F-luc. Shown is the average of 3 independent experiments with standard deviation. BL20 or TBL20 cells were treated with (b) 1μM of penetrating peptides ([…]-K(FITC)) containing the TpGcpE LXCXE motif, or an LXNXE control ([…]-K(FITC)) or (c) E2F inhibitor or DMSO control, and then counted by hemacytometer after the indicated timepoints. Shown is the average of 3 independent experiments with standard deviation. Then, either (d) virulent Ode T. annulata-transformed macrophages, or (e) BL20/TBL20 T. annulata-transformed cells were transfected with E2F-luc plasmid (or mutated E2F-luc as in (c)) and incubated for 24 hrs at 37 °C. Then, cells were treated with penetrating peptides as in (b) for 2 hrs and luciferase activity was quantified. Data shown are representative of three independent experiments done with biological duplicates, with mean + standard deviation (*P-value < 0.05 compared to untreated; ^‡P-value < 0.05 compared to its respective BL20 control).
The TpMD409.B2 cell line is a T. parva Muguga-infected B-cell clone (B2) whose establishment, phenotypic characteristics and culture conditions have been described[25]–[27]. BL20 cells are a retrovirus-transformed B cell line isolated from an infected cow. To eliminate the parasite, cells were treated for the indicated time with buparvaquone (50 ng/ml, 1 mg/ml stock in ethanol; Sigma). To inhibit E2F activity, cells were treated for the indicated time with HLM006474 (10 μM in DMSO, Sigma), or DMSO (10μM; Sigma) as a control. The T. annulata-infected cell lines BL20 (B cell), as well as Ode (macrophage) cell lines are well described and characterized.
The amino acid sequence of RB-1 based on the parasite sequence ([…]) was synthesized. Cysteine in wild type RB1 was replaced by an Asparagine (N; in bold […]). The penetrating peptide to facilitate cell entry is underlined.

uninfected BL20 cells = test: Cell proliferation, uninfected B cells (BL20), hemacytometer count; assay type: cell-based, bovine; conditions: uninfected BL20, HLM006474 10 μM in DMSO, average of 3 independent experiments
Method: as §1, with “control). […]” for “control).”

[2] = test system: T. parva-transformed TpMD409.B2 cells; test: Flow cytometric BrdU incorporation; assay type: cell-based, bovine; conditions: untreated vs buparvaquone-treated, 24 h and 48 h
Source text: The discovery of these peptides led us to investigate the particular RB/E2F signaling components in Theileria-infected cells. Eight E2F transcription factor genes have been identified in mammals, which can be divided into two groups: activators (E2F-1, E2F-2, E2F-3a), which can bind RB, and repressors (e.g. E2F-3b, E2F-4, E2F-5), which can bind RB, p107 and p130. The balance between the activator and repressor E2Fs seems to be primarily controlled by the phosphorylation status of the associated pocket proteins to which they bind. E2F interactions with the Dimerization Partner (DP) ligands are also important for regulating E2F transcription factor activity. We used Western blot to compare the levels of RB family, E2F, and DP-1 protein between T. parva-transformed cells that were left untreated with those treated with buparvaquone to kill the parasite and induce an arrest in host cell proliferation. By comparing expression levels between the buparvaquone-treated and untreated groups, we can determine parasite-dependent changes in the expression levels of these proteins. […]
Figure 2 RB/E2F signaling is activated by Theileria parasites. (a) Western blot analysis (left) of E2F-1, E2F-3 E2F-4, DP-1, pRB, and p130 expression in TpMD409B.2 cells, either left untreated (−), or treated (+) for 24 h and 48 h with buparvaquone (BQ), including band intensity quantification (right). […]

[3] = test system: E2F binding sites from the dhfr gene promoter; TpMD409.B2 nuclear extracts; test: E2F DNA binding activity by EMSA; assay type: cell-based, bovine; conditions: buparvaquone 50 ng/ml, 24 h and 48 h
Method: (a) Western blot analysis (left) of E2F-1, E2F-3 E2F-4, DP-1, pRB, and p130 expression in TpMD409B.2 cells, either left untreated (−), or treated (+) for 24 h and 48 h with buparvaquone (BQ), including band intensity quantification (right). Shown are representatives of three independent experiments. (b) E2F DNA binding activity in TpMD409B.2 cells was assayed by EMSA using gP32- labeled double-stranded oligonucleotide spanning E2F binding sites from the dhfr gene promoter. Left panel, nuclear extracts from TpMD409B.2 cells were incubated with γP32-labeled probe in absence or presence of a 100 fold molar excess of unlabeled wild type (WT), or mutated (MUT) double-stranded oligonucleotide. Binding reactions were resolved by non-denaturing polyacrylamide gel, which was processed afterwards for autoradiography. […]

[4] = test system: T. parva-transformed TpMD409.B2 cells; test: Western blot of RB/E2F pathway proteins after parasite killing; assay type: cell-based, bovine; conditions: buparvaquone 50 ng/ml
Source text: The discovery of these peptides led us to investigate the particular RB/E2F signaling components in Theileria-infected cells. Eight E2F transcription factor genes have been identified in mammals, which can be divided into two groups: activators (E2F-1, E2F-2, E2F-3a), which can bind RB, and repressors (e.g. E2F-3b, E2F-4, E2F-5), which can bind RB, p107 and p130. The balance between the activator and repressor E2Fs seems to be primarily controlled by the phosphorylation status of the associated pocket proteins to which they bind. E2F interactions with the Dimerization Partner (DP) ligands are also important for regulating E2F transcription factor activity. We used Western blot to compare the levels of RB family, E2F, and DP-1 protein between T. parva-transformed cells that were left untreated with those treated with buparvaquone to kill the parasite and induce an arrest in host cell proliferation. By comparing expression levels between the buparvaquone-treated and untreated groups, we can determine parasite-dependent changes in the expression levels of these proteins. […] These faster migrating bands likely correspond to hypophosphorylated, proliferation-suppressive forms of RB and p130, at 24 h and 48 h after treatment with buparvaquone.
Figure 2 RB/E2F signaling is activated by Theileria parasites. (a) Western blot analysis (left) of E2F-1, E2F-3 E2F-4, DP-1, pRB, and p130 expression in TpMD409B.2 cells, either left untreated (−), or treated (+) for 24 h and 48 h with buparvaquone (BQ), including band intensity quantification (right). Shown are representatives of three independent experiments. (b) E2F DNA binding activity in TpMD409B.2 cells was assayed by EMSA using gP32- labeled double-stranded oligonucleotide spanning E2F binding sites from the dhfr gene promoter. Left panel, nuclear extracts from TpMD409B.2 cells were incubated with γP32-labeled probe in absence or presence of a 100 fold molar excess of unlabeled wild type (WT), or mutated (MUT) double-stranded oligonucleotide. Binding reactions were resolved by non-denaturing polyacrylamide gel, which was processed afterwards for autoradiography. Right panel, EMSA analysis of E2F DNA binding activity in nuclear extracts from untreated, proliferating TpMD409B.2 cells (−) and TpMD409B.2 cells treated for 24 and 48 h with the parasiticidal drug buparvaquone (+). Arrows indicate E2F in complex with RB family proteins (Complexes) or free E2F protein (Free). (c) Flow cytometric analysis of BrdU incorporation and DNA content in TpMD409B.2 cells, either left untreated (control), or treated with buparvaquone for 24 h and 48 h. Shown is a representative of three independent experiments. […]

[5] = molecular target: T1, Retinoblastoma-1 (RB) pocket domain (Homo sapiens, UniProt P06400); test: Surface plasmon resonance binding to RB pocket domain; conditions: SPR, RB pocket domain on sensor chip; sequence-scrambled peptides as negative controls
T1 construct: Recombinant, purified RB pocket domain was coupled to the surface of the sensor chip; purchased LDBiopharma HTF-1035
T1 sequence (P06400 373-771 limits assumed): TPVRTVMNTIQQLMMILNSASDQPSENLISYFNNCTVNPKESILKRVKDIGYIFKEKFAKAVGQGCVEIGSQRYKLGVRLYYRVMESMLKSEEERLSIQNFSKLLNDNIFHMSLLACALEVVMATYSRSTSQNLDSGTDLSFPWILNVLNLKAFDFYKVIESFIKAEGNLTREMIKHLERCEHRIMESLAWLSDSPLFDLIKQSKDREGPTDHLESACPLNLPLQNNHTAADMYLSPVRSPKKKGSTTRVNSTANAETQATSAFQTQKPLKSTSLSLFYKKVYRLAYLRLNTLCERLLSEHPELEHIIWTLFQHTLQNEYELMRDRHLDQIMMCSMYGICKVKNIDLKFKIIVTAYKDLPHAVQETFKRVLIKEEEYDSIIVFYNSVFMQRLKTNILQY
Source text: Since the proliferation of T. parva-infected host cells is thought to be critical for the pathogenesis of infection, we investigated whether synthesized peptides, each 9 to 19 amino acids long and containing these 15 T. parva motifs, could bind to RB (Supplementary Table 1). Surface plasmon resonance (SPR) was used to screen these peptides for specific RB1 pocket domain-binding activity. Recombinant, purified RB pocket domain was coupled to the surface of the sensor chip, and purified peptides were introduced at various concentrations to quantify kinetics if response curves indicated a detectable protein-protein interaction. Sequence-scrambled peptides were used as negative controls to exclude false-positive signals.
Immobilization of human RB1 protein to CM5 chip
Surface preparation. […]
Kinetics analysis of binding. […] The analytes (60 µl each, 0–25 µM in HBS-EP buffer with 0.05% P20) were injected into flow cell and the association of analyte and ligand were recorded respectively by surface plasmon resonance (SPR) with a Biacore T200 (Biacore, Inc., New Jersey). […]
Data analysis. Sensorgrams of the interaction generated by the instrument were analyzed using the software BIAeval 3.2 (Biacore Inc., New Jersey). […]

`CCOc1ccc(C(Nc2ccccn2)c2ccc3ccc(C)nc3c2O)cc1C` (stereo not shown) [HLM006474, reference compound] was tested, and the “dependence of the effect on cell death” value (BL20/TBL20 cells) was “not dependent on cell death”, the “proliferation with E2F inhibitor” value [1] was “specifically reduced the proliferation of T. annulata-infected TBL20 cells” and the “proliferation with E2F inhibitor” value ([1]; listed as HLM0006474) was “specifically inhibit the proliferation of T. annulata-infected”. For the same molecule, the “proliferation with E2F inhibitor” value (uninfected BL20 cells) was “not uninfected BL20 cells” and the “proliferation with E2F inhibitor” value (uninfected BL20 cells; listed as HLM0006474) was “not uninfected bovine B cell lines”.
For `CC(C)(C)[C@H]1CC[C@H](CC2=C(O)C(=O)c3ccccc3C2=O)CC1` [buparvaquone], the “proliferation, dependence on the parasite” value [2] was “Proliferation was also confirmed to be dependent on the parasite”, the “E2F DNA binding activity” value [3] was “overall decrease in E2F DNA binding activity” and the “slow and intermediate complexes bound to E2F-dependent promoter” value [3] was “increase in complexes migrating at slow and intermediate speed bound to an E2F-dependent promoter”. For the same molecule, the “pRB and p130 migration” value ([4]; 24 h and 48 h, vs untreated) was “migrate faster in parasite-killed TpMD409.B2 cells than in untreated cells”, the E2F-4 protein levels ([4]; 48 h) was “E2F-4 levels remain unaltered” and the “slower-migrating DP-1 band” value ([4]; 48 h) was “a slower-migrating DP-1 band increases”. The “E2F-1 and E2F-3 protein levels” value ([4]; after 48 h but not 24 h) was “E2F-1 and E2F-3 protein levels decrease”.
For “RDELQGVIQLLYDRYNKYI [TpMuguga_02g02355, SPR screening peptide […] with an LXXLFD motif from TpMuguga_02g02355]”, the “RB binding in words” value [5] was “bound the RB pocket domain with nanomolar affinity; also recorded: bind RB in a sequence-specific fashion”.
